According to US10639287B2, “Compounds for the treatment of mitochondrial diseases” (UNIVERSITE PARIS-SUD, priority 2014, dated 2020):

What was measured:
[1] = tested on: mitochondrial proteins POLG, TFAM and ATP5B; test: Amount of POLG, TFAM and ATP5B proteins in fibroblasts (western blot), cell growth conditions; type: cell-based, human; conditions: 0.5 μM or 1.0 μM, control and patient fibroblasts
Description: Protein fractions of total extracts of control fibroblasts and of fibroblasts from a patient with a mutation on each allele of the POLG gene cultured in the presence of 0.1% DMSO or with 0.5 μM or 1.0 μM clofilium tosylate were analysed by electrophoresis.
Skin fibroblasts from the control and from the patient were cultured to 100% confluence in a complete Dulbecco's Modified Eagle Medium (DMEM) high glucose medium (4.5 g/L D-glucose, 110 mg/L sodium pyruvate, 10% foetal bovine serum, 1% penicillin/streptomycin from the stock solution containing 10,000 I.U. penicillin and 10,000 μg/mL streptomycin) at 37° C. under 5% CO2. At confluence, the cultures were trypsinised and placed in culture at 30% confluence in a complete DMEM high glucose medium supplemented with either 0.1% DMSO or with 0.5 μM or 1.0 μM clofilium tosylate. The cells were then incubated at 37° C. under 5% CO2 and harvested at 100% confluence. After trypsinisation, the total proteins of the fibroblasts were extracted and analysed by western blot. The proteins studied were the POLG protein (subjected to SDS/PAGE gel analysis (6%)), the mitochondrial proteins ATP5B and TFAM, and the cytosolic protein TUB3A as batch control.

[2] = tested on: homozygous TB2143 nematodes (polg-1(Δ/Δ)); test: Number of laid and hatched eggs of homozygous nematodes; type: in vivo, Caenorhabditis elegans; conditions: 50 μM vs DMSO
Description: Four homozygous TB2143 larvae (polg-1(ok1548Δ/Δ)) at stage L4 were deposited on each NGM dish containing either DMSO or 50 μM clofilium tosylate (three dishes for each treatment group). They were incubated at 20° C. to adulthood stage. The adults were moved every 9 to 12 hours, over 6 to 7 days, to new dishes containing DMSO or 50 μM clofilium tosylate until there were no eggs in the uterus, and the number of laid eggs was counted. Each laying process was monitored until the following day in order to count the hatching.

[3] = tested on: Saccharomyces cerevisiae mip1^G651S yeast strain; test: Inhibition of growth (MIC) / maximum tolerated concentration in yeast culture (DO600 after 24 h); type: cell-based; conditions: 1-512 μM tested
Description: From o/n pre-culture in selective medium (SC-URA, 2% ethanol (v/v)), 50 mL of rich YPD medium (1% Yeast Extract, 0.5% Bacto Peptone, 2% Glucose) were seeded at a DO600 of 0.05/mL. The 50 mL of culture were distributed in a series of ten tubes on the basis of 2 mL of culture/tube, with 4 mL of culture being placed in the last tube. […] From this tube (tube 1), 2 mL of culture were placed into tube 2. Tube 2 contained 4 ml of culture and clofilium tosylate at a concentration of 256 μM. 2 mL of tube 2 were added to tube 3, and so on. Each tube contained the drug at a concentration equal to half that of the previous tube. Two controls were provided—without clofilium tosylate and with DMSO (the volume being the same as that used to dilute the clofilium tosylate). The cultures were incubated at 28° C. with stirring for 24 hours, and the optical density (DO600) was measured.

[4] = tested on: homozygous TB2143 nematodes (polg-1(ok1548Δ/Δ)); test: Amount of mtDNA of homozygous nematodes depleted of mtDNA; type: in vivo, Caenorhabditis elegans
Description: Ten homozygous or wild-type TB2143 larvae (polg-1(ok1548Δ/Δ)) at stage L4 were deposited on each NGM dish containing either DMSO or 50 μM clofilium tosylate (three dishes for each treatment group). They were incubated at 20° C. until the 6th day of adulthood. Extraction of the total nematode DNAs was performed with the Nucleospin Kit Tissue kit (Macherey Nagel). The quantifications of mtDNA and nuclear DNA were performed as described in Addo et al., 2010 (Addo, M. G., Cossard, R., Pichard, D., Obiri-Danso, K., Rötig, A. and Delahodde, A. (2010) Caenorhabditis elegans, a pluricellular model organism to screen new genes involved in mitochondrial genome maintenance. BBA-Mol. Basis Dis., 1802, 765-773).

MIP1 yeast mutants = test: Fidelity of Mip1 polymerase: frequency of cells resistant to erythromycin (Ery^R); type: cell-based, Saccharomyces cerevisiae; conditions: 32 μM vs DMSO
Source text: A disruption of the fidelity of the Mip1 mitochondrial polymerase can be evaluated by measuring the frequency of cells resistant to erythromycin (Ery^R). The Ery^R mutations are caused by mutations in the 21S mitochondrial ribosomal RNA encoded by mtDNA that may occur after incorporation of a bad nucleotide (Baruffini, E., Lodi, T., Dallabona, C., Puglisi, A., Zeviani, M. and Ferrero, I. (2006) Genetic and Chemical rescue of the Saccharomyces cerevisiae phenotype induced by mitochondrial DNA polymerase mutations associated with progressive external ophthalmoplegia in humans. Hum. Mol. Genet., 15, 2846-2855). Measuring the resistance to erythromycin is one way to directly measure the point mutations of mtDNA.
Independent colonies were seeded in 10 mL of minimal medium (SC-TRP, 2% glucose) in the presence of 32 μM clofilium tosylate or DMSO to stationary phase. […] The mutation frequency was calculated as the number of Ery^R colonies among the total number of colonies (Baruffini, E., Lodi, T., Dallabona, C., Puglisi, A., Zeviani, M. and Ferrero, I. (2006) Genetic and Chemical rescue of the Saccharomyces cerevisiae phenotype induced by mitochondrial DNA polymerase mutations associated with progressive external ophthalmoplegia in humans. Hum. Mol. Genet., 15, 2846-2855).

[5] = tested on: yeast cells expressing the wild-type MIP1 gene or the mutated mip1^G651S gene; test: Respiration (O2 consumption) of yeast cells, HANSATECH electrode; type: cell-based, Saccharomyces cerevisiae; conditions: 32 μM vs DMSO
Description: The respiration rate is the amount of oxygen consumed per unit of time and biological material. It reflects the activity of the oxidative metabolism of the cells.
Oxygen consumption was measured on whole cells using a HANSATECH electrode. The yeast cells expressing the wild-type MIP1 gene or the mutated mip1^G651S gene were cultured for 7-8 generations in a YPE medium (1% Yeast Extract, 0.5% Bacto Peptone, 2% Ethanol) supplemented with DMSO or 32 μM clofilium tosylate at 28° C. with stirring. A volume corresponding to a total of 60 units of DO600 of each culture was centrifuged for 5 min at 3000 g. The pellet was resuspended in YPE in order to have 6.10^5 cells/μl. 50 μL, that is to say 3.10^7 cells, were introduced into the measuring chamber of the HANSATECH electrode, which was maintained at 28° C. The O2 consumption was observed and recorded in real time. The O2 consumption rate was calculated from the linear part of the O2 consumption curve.

Compound: CCCCCCC[N+](CC)(CC)CCCCc1ccc(Cl)cc1.Cc1ccc(S(=O)(=O)[O-])cc1 [clofilium tosylate]
- amount of mitochondrial proteins POLG, TFAM and ATP5B [1]: increased
- hatching of embryos [2]: increased
- number of laid eggs [2]: increased
- concentration chosen for the study in S. cerevisiae (determination of the maximum concentration tolerated) [3]: 32 µM
- amount of mtDNA of homozygous TB2143 nematodes ([4]; 50 μM vs DMSO): Clofilium tosylate increased the amount of mtDNA of homozygous TB2143 nematodes (polg-1(ok1548Δ/Δ)) depleted of mtDNA.
- mtDNA/nuDNA ([4]; polg-1(ok1548Δ/Δ), 50 μM, 6th day of adulthood): 69.2
- fidelity of the different MIP1 yeast mutants (Ery^R frequency) (MIP1 yeast mutants): no effect
- respiration of yeast cells (O2 consumption) [5]: breathed better
